The values that follow are results of earlier work, collected in patent US12606521B2, “Methods of treating cancer” (Institute For Cancer Research, priority 2020, dated 2026).

The subject of the series is cancer cells. Conditions: combination with decitabine.

`Cc1cc(C(C#N)c2ccc(Cl)cc2)c(Cl)cc1NC(=O)c1cc(I)cc(I)c1O` (stereo not shown) [closantel]: the “Interaction with decitabine in killing cancer cells” value is reported as “synergizes with decitabine”.
